Experimental data: US20250186325A1, “COMPOSITIONS OF ASCORBIC ACID SALTS” (SHISEIDO COMPANY, LTD., priority 2023, published 2025)

Test: Assay of SAP and AA2G by HPLC (ascorbic acid derivative loss)
Format: physicochemical
Conditions: in FL#1, HPLC
Description: The amount of ascorbic acid derivative content in a composition can be determined using a wide range of techniques including, but not limited to: titrimetric, spectrophotometric, electrochemical, fluorimetric, enzymatic and chromatographic. Methods for determining ascorbic acid derivative content in a topical composition can be complicated/confounded by the presence of excipients or other antioxidant agents (e.g., agents for stabilizing Vitamin C), as well as degradation products. Of the above-listed methods, high performance liquid chromatography may be preferred. See, A M Maia et al., “Validation of HPLC stability-indicating method for Vitamin C in semisolid pharmaceutical/cosmetic preparations . . . ” Talanta Vol. 71, pp. 639-643 (2007).
In addition, an assay of SAP and AA2G were analyzed by HPLC.

O=C1O[C@H]([C@@H](O)CO)C(O)=C1O[C@H]1O[C@H](CO)[C@@H](O)[C@H](O)[C@H]1O [AA2G, ascorbyl glucoside]
% Loss @25° C. (4 weeks) (25° C.): −1.00%
% Loss @37° C. (4 weeks) (37° C.): −1.00%
% Loss @40° C. (4 weeks) (40° C.): −1.00%
% Loss @45° C. (4 weeks) (45° C.): 0%
